# According to paper PMC10583824, “The rational design of ARUK2007145, a dual inhibitor of the α and γ isoforms of the lipid kinase phosphatidylinositol 5-phosphate 4-kinase (PI5P4K)” (RSC Medicinal Chemistry, 2023):
# Tests used:
# [1] = tested on: MDCK-MDR1 cells; test: MDR1-MDCK bi-directional permeability and efflux; settings: MDCK-MDR1 cells; A2B; 10 µM
# Description: (§2) MDR1-MDCK Permeability (bi-directional): was performed by Cyprotex Discovery. Briefly, compounds were administered at 10 µM (1% DMSO final) to the apical or basolateral side of a confluent monolayer of MDR1-MDCK cells, then incubated at 37 °C for 60 minutes before appearance on the opposite side of the monolayer was determined LC-MS/MS. The efflux ratio (ER) is calculated from the ratio of B-A to A-B permeabilities.
# [2] = tested on: MDR1 (P-gp); test: MDR1-MDCK bi-directional permeability and efflux; settings: dog, MDCK-MDR1
# Description: as §2
# [3] = Mouse liver microsome stability; type: in vitro ADME; settings: mouse liver microsomes half-life; read-out: MLM t½
# Description: (§1) ADMET experimental methods […]
# Mouse Microsomal stability: analysis was performed by Cyprotex Discovery. Briefly, test compounds in DMSO
# protein/mL) in the presence of NADPH (1 mM) at 37 °C. Aliquots were taken at time intervals (0, 5, 15, 30 and
# compound remaining, allowing the determination of the half-life for the compound.
# [4] = target: T1, PI5P4Kα (Homo sapiens, UniProt P48426); settings: for PI5P4Kα pIC50: ADP-Glo, footnote a: inconsistent replicates, value shown is upper limit
# T1 sequence (P48426 1-406): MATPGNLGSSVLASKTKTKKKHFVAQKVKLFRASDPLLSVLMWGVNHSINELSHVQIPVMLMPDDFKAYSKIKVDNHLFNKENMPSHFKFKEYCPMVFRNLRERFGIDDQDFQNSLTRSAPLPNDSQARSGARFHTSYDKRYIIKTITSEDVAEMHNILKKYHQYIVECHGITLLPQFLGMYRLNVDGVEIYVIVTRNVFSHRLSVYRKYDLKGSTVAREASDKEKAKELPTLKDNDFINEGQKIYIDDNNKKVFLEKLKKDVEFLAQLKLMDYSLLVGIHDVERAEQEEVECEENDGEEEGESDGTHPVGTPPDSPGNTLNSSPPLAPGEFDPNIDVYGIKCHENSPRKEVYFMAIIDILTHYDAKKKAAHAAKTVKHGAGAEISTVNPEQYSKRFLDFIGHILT
# [5] = target: T2, PI5P4Kγ+ (Homo sapiens, UniProt Q8TBX8, D138G/D197E/E133P/E135D/E153T/E196G/G139A/N195G/S132L/S134N); test: biochemical
# T2 sequence (Q8TBX8 with tags, fused parts or gaps INS131LPN/S132D/E133S/S134Q/E135A/G136R/D138G/G139A/E153T/N195G/E196G/D197E): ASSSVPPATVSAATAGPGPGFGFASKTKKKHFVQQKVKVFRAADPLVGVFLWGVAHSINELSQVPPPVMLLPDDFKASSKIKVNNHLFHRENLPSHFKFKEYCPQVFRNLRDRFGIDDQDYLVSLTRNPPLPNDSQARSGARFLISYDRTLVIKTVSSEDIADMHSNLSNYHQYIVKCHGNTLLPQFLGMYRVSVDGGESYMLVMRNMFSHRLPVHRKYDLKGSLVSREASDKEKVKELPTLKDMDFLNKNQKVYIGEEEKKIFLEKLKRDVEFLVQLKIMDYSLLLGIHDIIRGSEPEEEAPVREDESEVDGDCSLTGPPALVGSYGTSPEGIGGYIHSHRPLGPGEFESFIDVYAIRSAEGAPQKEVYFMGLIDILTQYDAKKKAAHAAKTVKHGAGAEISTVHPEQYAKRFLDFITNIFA
# [6] = Turbidimetric aqueous solubility; type: physicochemical; settings: pH 7.4, turbidimetric
# Description: as §1
# Turbidimetric aqueous solubility: analysis was performed by Cyprotex Discovery. Compound in DMSO at 10 mM was serially diluted to solutions of 0.1, 0.3, 1 and 3 mM in DMSO, then further diluted 1 in 100 in buffer (0.01 M PBS, pH 7.4, 1% DMSO final). 7 replicate wells of each dilution were equilibrated for 2 hours at 37 °C before absorbance is measured at 620 nm. The solubility is estimated from the concentration of test compound that produces an increase in absorbance above vehicle control (1% DMSO in buffer). […]
# [7] = tested on: PI5P4Kγ+; settings: ratio PI5P4Kα IC50 / PI5P4Kγ+ IC50, ADP-Glo
# [8] = ADP-Glo pIC50 PI5P4Kγ+, Table S1, two decimals, asterisk not explained
# [9] = PI5P4Kγ+ pIC50, ADP-Glo, footnote a: inconsistent replicates, value shown is upper limit
P app (A2B) [1],"efflux ratio at 60 min, 10 µM [2]",half-life at 1 µM [3] [min],PI5P4Kα pIC50 [4],"IC50 [5, 8] [nM]","IC50 [5, 9] [nM]",solubility at 2 h [6] [µM],Fold-selectivity (α IC50/γ IC50) [7],"ADP-Glo pIC50 PI5P4Kα ([4]; Table S1, two decimals, asterisk not explained)",Compound
2.45 10^−6 cm s^−1,34.1,8.2,6.0,12.3,12.6,30,79,–,Cc1ccncc1-c1cc2c(Nc3ccc(S(C)(=O)=O)cc3)ncnc2s1 [Compound 14]
14.2 10^−6 cm s^−1,3.7,51.4,<6.2,–,50.1,10,–,–,CS(=O)(=O)c1ccc(Nc2ncnc3scc(Cl)c23)cc1 [Compound 32]
9.95 10^−6 cm s^−1,0.91,1.94,7.0,52.5,50.1,3,1.9,7.01,Cc1ncccc1-c1cc2ncnc(Nc3ccc(C4CC4)cc3)c2s1 [Compound 38]
